Measured values from PMC3767324, “Synthesis, Characterization, and BSA Binding Studies of Some New Benzamides Related to Schiff Base” (ISRN Organic Chemistry, 2013).
Converted amounts (≈) assume the structure as drawn. “And” between values parts separate entries of the source, which are not always exact repeats. Identical values can stand only once.

Columns and labels:
[1] = test system: A. niger; assay: agar disc diffusion, zone of inhibition; type: cell-based; conditions: Aspergillus niger, 48 h
Protocol: [The procedure below names another organism; the source lists this organism under the same test.] (§1) The in vitro antimicrobial screening effects of the compounds (3 and 5a–j) were individually tested against a panel of bacteria and fungi including Staphylococcus aureus (NCIM 5021), Bacillus subtilis (NCIM 2999), Pseudomonas aeruginosa (NCIM 5029), Escherichia coli (NCIM 2574), Candida. albicans (NCIM 3471), and Aspergillus flavus (NCIM 524). Microbial strains were cultured overnight at 37°C in nutrient and potato dextrose agar medium. All the pure microbial strains were obtained from National Chemical Laboratory (NCL), Pune, India.
(§2) The antibacterial activity of compounds was determined by agar disc diffusion method. Briefly, a suspension of tested bacterial strains was spread on the nutrient agar medium and potato dextrose agar for fungi. The discs (6 mm in diameter) impregnated with test chemicals each dissolved in concentration (100 μg/mL in DMSO) were placed on the inoculated agar and these plates were kept at 4°C for 2 h. The plate was incubated at 37°C for 24 h in case of bacteria and 48 h at 28°C in case of fungi. streptomycin (10 μg/disc) and fluconazole (10 μg/disc) were used as the standards for antibacterial and antifungal activity, respectively. All the samples were performed in triplicate and the zone of inhibition was measured in millimeters.

[2] = test system: Aspergillus flavus (NCIM 524); assay: agar disc diffusion, zone of inhibition; type: cell-based; conditions: Aspergillus flavus, NCIM524, 48 h
Protocol: as §1, §2

[3] = test system: Bacillus subtilis (NCIM 2999); assay: agar disc diffusion, zone of inhibition; type: cell-based; conditions: Bacillus subtilis, NCIM2999, 24 h
Protocol: as §1, §2

[4] = test system: Escherichia coli (NCIM 2574); assay: agar disc diffusion, zone of inhibition; type: cell-based; conditions: Escherichia coli, NCIM2574, 24 h
Protocol: as §1, §2

[5] = test system: Pseudomonas aeruginosa (NCIM 5029); assay: agar disc diffusion, zone of inhibition; type: cell-based; conditions: Pseudomonas aeruginosa, NCIM5029, 24 h
Protocol: as §1, §2

[6] = test system: Staphylococcus aureus (NCIM 5021); assay: agar disc diffusion, zone of inhibition; type: cell-based; conditions: Staphylococcus aureus, NCIM5021, 24 h
Protocol: as §1, §2

[7] = test system: A. niger; assay: minimum inhibitory concentration by dilution method; type: cell-based
Protocol: [The procedure below names another organism; the source lists this organism under the same test.] as §1
(§3) The minimum inhibitory concentration of the synthesized compounds was determined by dilution method. The compounds were dissolved and then diluted using DMSO; two-fold serial concentrations of the compounds were employed to determine the MIC. In this method, the test concentrations of chemically synthesized compounds were made from 5 to 125 μg/mL.

[8] = test system: Aspergillus flavus (NCIM 524); assay: as above; type: cell-based; conditions: Aspergillus flavus, NCIM524
Protocol: as §1, §3

[9] = test system: Escherichia coli (NCIM 2574); assay: as above; type: cell-based; conditions: Escherichia coli, NCIM2574
Protocol: as §1, §3

[10] = test system: Pseudomonas aeruginosa (NCIM 5029); assay: as above; type: cell-based; conditions: Pseudomonas aeruginosa, NCIM5029
Protocol: as §1, §3

[11] = DPPH free radical scavenging activity; conditions: DPPH 0.1 mM, absorbance at 517 nm; triplicate, mean ± SD
Protocol: The capacity to scavenge the stable free radical 2,2-diphenyl-1-picrylhydrazyl (DPPH) was monitored according to the Blois method. The test samples (10–100 μL) were mixed with 1 mL of DPPH (0.1 mM) solution and filled up with methanol to a final volume of 4 mL. Absorbance of the resulting solution was measured at 517 nm in a visible spectrophotometer (Model 166, Systronics, India). The free radical scavenging rate of the reaction solution was calculated as a percentage (%) of DPPH decolouration using the equation (1) I(%)=(Ablank−Asample/Ablank)×100, where A blank is the absorbance of the control reaction mixture excluding the test compounds, and A sample is the absorbance of the test compounds. Radical scavenging potential was expressed as IC50 value, which represents the sample concentration at which 50% of the DPPH radicals were scavenged. Tests were carried out in triplicate and the results were expressed as mean values ± standard deviations.
DPPH radical scavenging activity evaluation is a standard assay in antioxidant activity studies and offers a rapid technique for screening the radical scavenging activity of specific compounds [24]. The free radical scavenging activity of newly synthesized compounds was tested by their ability to bleach the stable radical DPPH. The activity was monitored by following the absorption at 517 nm in a visible spectrophotometer. In the presence of any free radical scavenger, this odd electron pairs up and causes the diminishing of absorption band which is proportional to the number of electrons taken up. The activity was studied at different concentrations for each compound. […] Resulting from a color change from purple to yellow the absorbance decreased when the antioxidant molecule can quench DPPH free radical through donation of hydrogen atom or by electron donating to form a stable DPPH molecule.

[12] = biological target: T1, bovine serum albumin (BSA) (Bos taurus, UniProt P02769); assay: fluorescence quenching of BSA, binding parameters; conditions: for n (number of binding sites) / K sv (Stern-Volmer quenching constant) / K q (quenching rate constant) / shift of BSA fluorescence emission maximum wavelength: 298 K; for K sv (Stern-Volmer quenching constant): BSA 1.00 × 10^−5 mol L^−1, Tris-HCl pH 7.4; for K q (quenching rate constant): τ0 = 10^−8 s; for shift of BSA fluorescence emission maximum wavelength: excitation 280 nm, emission around 340 nm
T1 construct: Bovine serum albumin (BSA), one of the major components in plasma protein; purchased Sigma Aldrich Bangalore
Protocol: All the chemicals and solvents were of AR grade. Solvents were used as supplied by commercial sources without any further purification. BSA (essentially fatty-acid-free) was purchased from Sigma Aldrich Bangalore and stored in refrigerator at 4.0°C. BSA solution was prepared in the Tris-HCl buffer solution (0.05 mol L^−1 Tris, 0.15 mol L^−1 NaCl, pH 7.4) and it was kept in the dark at 298 K. The compounds were prepared as stock solutions using DMF. All other reagents were of analytical reagent grade, and double-distilled water was used during the experiment.
For each of the […] active compounds (5a, 5c, 5g, 5h, 5i, and 5j), the binding parameters with BSA molecules were measured by fluorescence spectroscopy. A solution (2.5 mL) containing 1.00 × 10^−5 mol L^−1 BSA was titrated by successive additions of 1.00 × 10^−3 mol L^−1 NABP stock solution and the concentration of NABP varied from 0 to 3.0 × 10^−5 mol L^−1 (a–g). Titrations were done manually by using microinjector. Fluorescence intensity was measured (excitation at 280 nm and emission at 340 nm). All experiments were performed at 298 K.
In order to investigate the quenching mechanism, the fluorescence quenching data K 0 and n were analyzed by the Stern-Volmer equation (2): (2) F0/F=1+Ksv[Q]=1+Kqτ0[Q], where F 0 and F denote the steady-state fluorescence intensities in the absence and in the presence of quencher, respectively, K 0 is binding constant of BSA, [Q] is the equilibrium concentration of the quencher, and n is the number of binding sites. The average lifetime, τ 0 of the molecule without quencher is 10^−8 s.
When the quenching mechanism is static, the binding parameters between BSA and compounds can be determined using (3): (3) log(F0−F)/F=log Ka+n log[Q].
The plot of log[(F 0 − F)/F] versus log[NABP], binding constant K a, and binding sites n were calculated from the intercept and slope. […] The value of n approximately equaled 1.

T1 sequence (P02769 25-607): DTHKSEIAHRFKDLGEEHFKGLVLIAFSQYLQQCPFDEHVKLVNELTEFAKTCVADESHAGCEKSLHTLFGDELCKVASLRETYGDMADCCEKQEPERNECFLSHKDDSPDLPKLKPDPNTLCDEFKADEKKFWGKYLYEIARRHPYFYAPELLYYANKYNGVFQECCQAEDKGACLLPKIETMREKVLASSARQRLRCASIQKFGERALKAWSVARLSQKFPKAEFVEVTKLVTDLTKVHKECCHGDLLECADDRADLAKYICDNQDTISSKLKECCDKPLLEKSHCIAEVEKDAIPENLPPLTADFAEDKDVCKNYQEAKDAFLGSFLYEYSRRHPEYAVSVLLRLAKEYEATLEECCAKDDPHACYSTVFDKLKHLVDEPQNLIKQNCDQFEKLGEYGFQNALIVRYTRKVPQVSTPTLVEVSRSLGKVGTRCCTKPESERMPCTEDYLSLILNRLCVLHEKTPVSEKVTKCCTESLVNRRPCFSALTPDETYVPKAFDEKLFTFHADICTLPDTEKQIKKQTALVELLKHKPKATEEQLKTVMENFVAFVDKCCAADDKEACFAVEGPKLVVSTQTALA

SMILES | zone of inhibition at 100 µg/mL [1] [mm] | zone of inhibition at 100 µg/mL [2] [mm] | zone of inhibition at 100 µg/mL [3] [mm] | zone of inhibition at 100 µg/mL [4] [mm] | zone of inhibition at 100 µg/mL [5] [mm] | zone of inhibition at 100 µg/mL [6] [mm] | MIC ([7]; Aspergillus niger) [µg/mL] | MIC [8] [µg/mL] | MIC [9] [µg/mL] | MIC [10] [µg/mL] | IC50 DPPH [11] | Kd [12] [µM] | n (number of binding sites) [12] | K sv (Stern-Volmer quenching constant) [12] [L/mol] | K q (quenching rate constant) [12] [M⁻¹ s⁻¹] | shift of BSA fluorescence emission maximum wavelength [12] | MIC ([7]; A. niger, dilution method, average of three replicates) [µg/mL]
CC(=O)N(C(=O)c1ccc(O)cc1)c1ccc(N=Cc2cc3ccccc3o2)cc1 [Compound 5j, N-acetyl-N-(4-((benzofuran-2-ylmethylene)amino)phenyl)-4-hydroxybenzamide] | 9 | 15 | 9 | 11 | 13 | 12 | 40 (≈ 100 µM) | 40 (≈ 100 µM) | 50 (≈ 125 µM) | 50 (≈ 125 µM) | 15.3 ± 0.11 µg/mL (≈ 38.4 µM) | 91.7 | 0.961 | 23900 | 2.39e+12 | red shift | 
CC(=O)N(C(=O)c1cc(F)cc(F)c1)c1ccc(N=Cc2cc3ccccc3o2)cc1 [Compound 5h, N-acetyl-N-(4-((benzofuran-2-ylmethylene)amino)phenyl)-3,5-difluorobenzamide] | 11.4 | 10.9 | 12 | 11 | 17 | 14 | 10 (≈ 23.9 µM) | 15 (≈ 35.9 µM) | 25 (≈ 59.8 µM) | 25 (≈ 59.8 µM) | > 100 µg/mL and 100 ± 0.19 µg/mL | 12.7 | 1.136 | 21300 | 2.13e+12 | red shift | 
CC(=O)N(C(=O)c1cc(F)c(F)c(F)c1)c1ccc(N=Cc2cc3ccccc3o2)cc1 [Compound 5g, N-acetyl-N-(4-(benzofuran-2-ylmethyleneamino)phenyl)-3,4,5-trifluorobenzamide] | 13.2 | 14 | 13.5 | 12.7 | 14 | 13.6 | 10 (≈ 22.9 µM) | 15 (≈ 34.4 µM) | 12 (≈ 27.5 µM) | 10 (≈ 22.9 µM) | > 100 µg/mL and >125 µg/mL | 6.37 | 1.281 | 79800 | 7.98e+12 | slight blue shift | 10 (≈ 22.9 µM)
